Measurements taken from article PMC5484777 (Journal of medicinal chemistry, 2016).
Entries after “also recorded” stand apart in the source; their conditions may differ.

Columns and labels:
[1] = biological target: GluN1/2A receptors (Rattus norvegicus, UniProt P35439+Q00959); format: cell-based
[2] = biological target: GluN1/2A receptors (Rattus norvegicus, UniProt Q00959); format: cell-based; conditions: ratio est Ki GluN1/2B / GluN1/2A
[3] = biological target: GluN1/2B receptors (Rattus norvegicus, UniProt P35439+Q00960); format: cell-based
Chain of GluN1/2B receptors (Q00960 27-1482, other chains not shown): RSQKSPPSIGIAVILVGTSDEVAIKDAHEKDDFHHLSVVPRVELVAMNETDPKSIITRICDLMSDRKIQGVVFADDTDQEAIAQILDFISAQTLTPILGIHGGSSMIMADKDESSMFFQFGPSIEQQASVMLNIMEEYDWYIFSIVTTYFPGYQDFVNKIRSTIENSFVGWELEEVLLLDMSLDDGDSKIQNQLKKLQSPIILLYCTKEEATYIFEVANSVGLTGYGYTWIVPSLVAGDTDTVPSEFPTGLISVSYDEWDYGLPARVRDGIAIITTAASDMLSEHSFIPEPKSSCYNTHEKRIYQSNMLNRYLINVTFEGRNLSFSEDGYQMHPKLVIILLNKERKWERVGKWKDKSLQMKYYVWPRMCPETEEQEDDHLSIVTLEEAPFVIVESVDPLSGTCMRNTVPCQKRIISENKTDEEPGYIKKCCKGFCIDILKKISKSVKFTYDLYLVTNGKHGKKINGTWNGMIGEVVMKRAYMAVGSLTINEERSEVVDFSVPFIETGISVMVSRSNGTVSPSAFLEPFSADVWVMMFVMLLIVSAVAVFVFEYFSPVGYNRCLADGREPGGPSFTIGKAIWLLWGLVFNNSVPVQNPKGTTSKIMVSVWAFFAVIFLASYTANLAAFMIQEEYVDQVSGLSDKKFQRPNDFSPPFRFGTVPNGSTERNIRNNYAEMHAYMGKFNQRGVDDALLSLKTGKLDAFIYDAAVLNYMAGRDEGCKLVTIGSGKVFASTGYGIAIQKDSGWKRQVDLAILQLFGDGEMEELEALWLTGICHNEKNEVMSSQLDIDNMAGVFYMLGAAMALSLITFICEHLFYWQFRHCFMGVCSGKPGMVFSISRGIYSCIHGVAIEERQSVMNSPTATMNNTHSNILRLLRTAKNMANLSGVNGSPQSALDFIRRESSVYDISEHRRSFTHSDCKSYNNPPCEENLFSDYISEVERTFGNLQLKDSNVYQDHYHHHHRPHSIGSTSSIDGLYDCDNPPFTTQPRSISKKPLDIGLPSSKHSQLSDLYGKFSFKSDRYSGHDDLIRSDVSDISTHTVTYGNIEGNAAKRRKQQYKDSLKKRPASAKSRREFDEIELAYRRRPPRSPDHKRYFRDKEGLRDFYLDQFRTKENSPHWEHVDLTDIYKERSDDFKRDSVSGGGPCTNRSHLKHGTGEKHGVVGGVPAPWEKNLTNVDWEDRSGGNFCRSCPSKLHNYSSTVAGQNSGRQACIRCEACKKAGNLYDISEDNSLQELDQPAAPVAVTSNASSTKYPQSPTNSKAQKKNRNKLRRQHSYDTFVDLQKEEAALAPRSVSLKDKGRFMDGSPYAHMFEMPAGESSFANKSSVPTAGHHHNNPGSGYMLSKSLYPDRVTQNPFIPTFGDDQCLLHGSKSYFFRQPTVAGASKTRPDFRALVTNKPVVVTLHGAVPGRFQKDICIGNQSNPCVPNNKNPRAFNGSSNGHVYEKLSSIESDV

[4] = biological target: GluN1/2C receptors (Rattus norvegicus, UniProt P35439+Q00961); format: cell-based
Chain of GluN1/2C receptors (Q00961 20-1237, other chains not shown): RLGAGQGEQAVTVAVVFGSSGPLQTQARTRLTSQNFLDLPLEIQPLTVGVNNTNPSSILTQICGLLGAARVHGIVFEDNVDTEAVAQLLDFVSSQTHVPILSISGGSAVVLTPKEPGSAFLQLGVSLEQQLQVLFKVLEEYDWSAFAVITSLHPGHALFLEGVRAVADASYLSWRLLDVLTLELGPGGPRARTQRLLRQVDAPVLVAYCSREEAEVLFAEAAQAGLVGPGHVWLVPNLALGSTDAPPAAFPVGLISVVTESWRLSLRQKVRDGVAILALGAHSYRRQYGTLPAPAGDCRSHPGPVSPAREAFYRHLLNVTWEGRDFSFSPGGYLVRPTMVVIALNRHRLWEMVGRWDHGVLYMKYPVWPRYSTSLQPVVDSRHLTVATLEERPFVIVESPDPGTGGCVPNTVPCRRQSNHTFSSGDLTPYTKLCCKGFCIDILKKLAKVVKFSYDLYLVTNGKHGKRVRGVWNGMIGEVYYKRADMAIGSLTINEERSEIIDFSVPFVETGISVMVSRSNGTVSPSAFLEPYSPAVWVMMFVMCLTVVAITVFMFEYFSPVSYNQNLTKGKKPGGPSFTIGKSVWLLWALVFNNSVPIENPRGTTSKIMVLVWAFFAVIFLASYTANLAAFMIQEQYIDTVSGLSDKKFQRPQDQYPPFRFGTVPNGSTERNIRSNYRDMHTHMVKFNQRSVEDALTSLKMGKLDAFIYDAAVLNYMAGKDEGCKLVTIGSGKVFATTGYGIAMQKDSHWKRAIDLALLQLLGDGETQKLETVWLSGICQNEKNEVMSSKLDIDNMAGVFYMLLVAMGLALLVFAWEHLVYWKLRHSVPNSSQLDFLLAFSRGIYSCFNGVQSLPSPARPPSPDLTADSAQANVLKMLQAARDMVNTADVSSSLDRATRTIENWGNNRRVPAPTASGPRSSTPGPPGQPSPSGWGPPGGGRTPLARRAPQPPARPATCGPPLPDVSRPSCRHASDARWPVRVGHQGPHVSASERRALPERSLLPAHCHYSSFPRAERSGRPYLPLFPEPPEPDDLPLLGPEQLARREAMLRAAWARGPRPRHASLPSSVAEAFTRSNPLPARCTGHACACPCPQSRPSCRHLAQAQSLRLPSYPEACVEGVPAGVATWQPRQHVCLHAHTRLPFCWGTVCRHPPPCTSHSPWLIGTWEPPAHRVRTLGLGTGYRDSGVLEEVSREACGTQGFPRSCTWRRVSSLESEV

[5] = biological target: GluN1/2D receptors (Rattus norvegicus, UniProt P35439+Q62645); format: cell-based
Chain of GluN1/2D receptors (Q62645 28-1323, other chains not shown): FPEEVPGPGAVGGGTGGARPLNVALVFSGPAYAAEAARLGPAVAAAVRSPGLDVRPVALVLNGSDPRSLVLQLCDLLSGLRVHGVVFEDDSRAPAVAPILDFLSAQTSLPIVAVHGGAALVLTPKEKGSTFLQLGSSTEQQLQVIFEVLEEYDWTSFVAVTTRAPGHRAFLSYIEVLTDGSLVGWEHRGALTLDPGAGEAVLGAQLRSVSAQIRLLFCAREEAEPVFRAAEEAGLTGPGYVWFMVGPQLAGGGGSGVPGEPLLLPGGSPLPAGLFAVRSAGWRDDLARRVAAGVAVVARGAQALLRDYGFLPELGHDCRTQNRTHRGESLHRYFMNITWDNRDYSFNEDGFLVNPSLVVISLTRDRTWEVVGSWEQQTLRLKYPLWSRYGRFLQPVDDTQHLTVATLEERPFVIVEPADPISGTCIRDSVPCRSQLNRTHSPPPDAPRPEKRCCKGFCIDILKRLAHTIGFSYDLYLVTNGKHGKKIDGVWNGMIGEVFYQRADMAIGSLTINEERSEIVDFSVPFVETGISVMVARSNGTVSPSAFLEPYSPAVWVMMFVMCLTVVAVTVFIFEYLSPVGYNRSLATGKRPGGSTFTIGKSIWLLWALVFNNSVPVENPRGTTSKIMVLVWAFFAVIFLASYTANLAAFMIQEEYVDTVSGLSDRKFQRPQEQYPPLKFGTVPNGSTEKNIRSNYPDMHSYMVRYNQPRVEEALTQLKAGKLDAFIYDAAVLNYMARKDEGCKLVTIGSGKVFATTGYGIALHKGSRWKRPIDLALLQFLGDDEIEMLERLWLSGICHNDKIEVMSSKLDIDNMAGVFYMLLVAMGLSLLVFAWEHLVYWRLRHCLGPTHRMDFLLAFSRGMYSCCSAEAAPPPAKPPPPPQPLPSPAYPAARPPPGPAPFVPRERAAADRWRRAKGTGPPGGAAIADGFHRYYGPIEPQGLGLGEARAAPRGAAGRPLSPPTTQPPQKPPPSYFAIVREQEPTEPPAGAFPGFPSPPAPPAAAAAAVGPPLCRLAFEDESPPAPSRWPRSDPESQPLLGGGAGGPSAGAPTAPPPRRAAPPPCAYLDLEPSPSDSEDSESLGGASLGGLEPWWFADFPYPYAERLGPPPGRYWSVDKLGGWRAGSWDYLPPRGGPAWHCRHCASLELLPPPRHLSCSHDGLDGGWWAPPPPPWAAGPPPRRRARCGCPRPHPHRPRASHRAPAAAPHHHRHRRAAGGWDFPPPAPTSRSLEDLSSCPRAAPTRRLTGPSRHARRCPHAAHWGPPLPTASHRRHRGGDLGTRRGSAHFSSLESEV

[6] = system: GluN1/2A; conditions: cited from earlier work
[7] = Ex vivo brain biodistribution and autoblockade of [11C]11e; format: in vivo, CD-1 mice; conditions: 15–75 min uptake, IV, mice (Figure 4A,B)
[8] = In vivo PET-CT imaging; parameters: species or system female athymic nude mice; conditions: intravenous bolus, dynamic PET, mice
[9] = Ex vivo brain autoradiography; format: in vivo, female athymic nude mice; conditions: serial brain sections

| Compound | IC50 [1] | Ki [1] | estimated Ki fold higher at GluN1/2B compared to GluN1/2A (selectivity) [2] | IC50 [3] | Ki [3] | IC50 [4] | Ki [4] | IC50 [5] | Ki [5] | also measured |
| --- | --- | --- | --- | --- | --- | --- | --- | --- | --- | --- |
| N[C@H](C[C@H]1CC(C(=O)O)=NN1c1ccc(F)cc1)C(=O)O [4a, (S)-5-((R)-2-Amino-2-carboxyethyl)-1-(4-fluorophenyl)-4,5-dihydro-1H-pyrazole-3-carboxylic Acid] | 160 ± 10 nM | 43 ± 2 nM | 7.6 fold | 860 ± 10 nM | 330 ± 40 nM | 920 ± 20 nM | 230 ± 10 nM | 920 ± 20 nM | 290 ± 10 nM | – |
| N[C@H](C[C@H]1CC(C(=O)O)=NN1c1ccc(Cl)cc1)C(=O)O [4b, (S)-5-((R)-2-Amino-2-carboxyethyl)-1-(4-chlorophenyl)-4,5-dihydro-1H-pyrazole-3-carboxylic Acid] | 98 ± 4 nM | 27 ± 1 nM | 4.0 fold | 280 ± 20 nM | 110 ± 10 nM | 180 ± 10 nM | 44 ± 2 nM | 520 ± 20 nM | 160 ± 10 nM | – |
| N[C@H](C[C@H]1CC(C(=O)O)=NN1c1ccc(Br)cc1)C(=O)O [4c, (S)-5-((R)-2-Amino-2-carboxyethyl)-1-(4-bromophenyl)-4,5-dihydro-1H-pyrazole-3-carboxylic Acid] | 91 ± 4 nM | 25 ± 1 nM | – | 250 ± 20 nM | 94 ± 7 nM | 190 ± 10 nM | 47 ± 3 nM | 630 ± 40 nM | 200 ± 10 nM | – |
| N[C@H](C[C@H]1CC(C(=O)O)=NN1c1ccc(I)cc1)C(=O)O [4d, (S)-5-((R)-2-Amino-2-carboxyethyl)-1-(4-iodophenyl)-4,5-dihydro-1H-pyrazole-3-carboxylic Acid] | 910 ± 80 nM | 250 ± 20 nM | – | 700 ± 40 nM | 270 ± 20 nM | 560 ± 20 nM | 140 ± 10 nM | – | – | – |
| Cc1ccc(N2N=C(C(=O)O)C[C@@H]2C[C@@H](N)C(=O)O)cc1 [4e, (S)-5-((R)-2-Amino-2-carboxyethyl)-1-p-tolyl-4,5-dihydro-1H-pyrazole-3-carboxylic Acid] | 180 ± 10 nM | 48 ± 3 nM | 5.3 fold | 690 ± 50 nM | 250 ± 20 nM | 380 ± 20 nM | 96 ± 5 nM | – | 440 ± 20 nM | – |
| C[C@H](N[C@@H](c1cccc2[nH]c(=O)c(=O)[nH]c12)P(=O)(O)O)c1ccc(Br)cc1 [NVP-AAM077, [(R)-[(S)-1-(4-bromophenyl)-ethylamino]-(2,3-dioxo-1,2,3,4-tetrahydroquinoxalin-5-yl)-methyl]-phosphonic acid] | – | – | – | – | – | – | – | – | – | binding affinity fold higher for GluN1/2A compared to GluN1/2B [6]: 5.2 fold |
| COC(=O)C1=NN(c2ccc([11CH3])cc2)[C@@H](C[C@@H](NC(=O)OC(C)(C)C)C(=O)OC)C1 [[^11C]11e, Methyl (S)-5-((R)-2-((tert-Butoxycarbonyl)amino)-3-methoxy-3-oxopropyl)-1-(4-[^11C]methylphenyl)-4,5-dihydro-1H-pyrazole-3-carboxylate] | – | – | – | – | – | – | – | – | – | uptake in brain regions [7]: below 1.5 % ID/g |
| COC(=O)C1=NN(c2ccc([124I])cc2)[C@@H](C[C@@H](N)C(=O)OC)C1 [[^124I]11d, Methyl (S)-5-((R)-2-Amino-3-methoxy-3-oxopropyl)-1-(4-[^124I]-iodophenyl)-4,5-dihydro-1H-pyrazole-3-carboxylate] | – | – | – | – | – | – | – | – | – | brain uptake by in vivo PET imaging [8]: below the threshold of detection; also recorded: no observable brain uptake |
| N[C@H](C[C@H]1CC(C(=O)O)=NN1c1ccc([125I])cc1)C(=O)O [[^125I]4d, (S)-5-((R)-2-Amino-2-carboxyethyl)-1-(4-[^125I]iodophenyl)-4,5-dihydro-1H-pyrazole-3-carboxylic Acid] | – | – | – | – | – | – | – | – | – | brain uptake (ex vivo autoradiography) ([9]; 60 min conscious uptake): no evidence of brain uptake |
| COC(=O)C1=NN(c2ccc([125I])cc2)[C@@H](C[C@@H](N)C(=O)OC)C1 [[^125I]11d, Methyl (S)-5-((R)-2-Amino-3-methoxy-3-oxopropyl)-1-(4-[^125I]-iodophenyl)-4,5-dihydro-1H-pyrazole-3-carboxylate] | – | – | – | – | – | – | – | – | – | brain uptake (ex vivo autoradiography) ([9]; 40 min conscious uptake): brain region-selective uptake |
